The subject of data set [1] is C57BL/6J inbred strain female mice. Put plainly: Survival after 8 Gy whole body γ-irradiation, intraperitoneal dosing 4 hours before or after (Example 4). In kind it is in vivo. As to conditions: for No. of animals surviving at 20 days post-irradiation: 4 animals; for Death rate (%): 20 days. On the procedure:
β-lapachone is prepared at 10 mg/ml in 40% hydroxypropyl-beta-cyclodextrin (HPBCD).
C57BL/6J inbred strain female mice (4-5 weeks old) are used. Animals are maintained in a climate-controlled animal facility.
Animals are injected with different concentrations of β-lapachone (20 and 40 mg/kg body weight) intraperitoneally 4 hours before or after irradiation.
Whole body irradiation of animals with 8 Gy of γ-rays is carried out in air at room temperature in a gamma chamber (Gammacell 40 Exactor), at a dose-rate of 1.05 Gy/min. This radiation dose is within the range of equivalent human exposures predicted in many scenarios of radiologic or nuclear terrorist attack.
Mice are divided into the following groups (each Group comprises four mice receiving identical treatment):
Group II: Mice are injected with β-lapachone 20 mg/kg body weight 4 hours before radiation.
Group III: Mice are injected with β-lapachone 40 mg/kg body weight 4 hours before radiation.
Group IV: Mice are injected with β-lapachone 20 mg/kg body weight 4 hours after radiation.
Group V: Mice are injected with β-lapachone 40 mg/kg body weight 4 hours after radiation.
Group VI: Mice are injected with amifostine 10 mg/kg body weight 4 hours before radiation.
Animals are irradiated with 8 Gy at 1.05 Gy/min dose-rate. After irradiation mice are returned to their cage and observed on a regular basis. Exposure to γ-rays causes lethality in animals. Importantly, treatment with β-lapachone, especially at a level of 40 mg/kg prior to irradiation, diminishes the death rate.

The subject of data set [2] is rats. The conditions noted are these: p.o. daily for one month; cited from earlier work.
[3] abbreviates: 20 mg/kg i.p. 4 hr after Radiation 8 Gy.
Setting [4] is: 20 mg/kg i.p. 4 hr before Radiation 8 Gy.
The mark [5] stands for this setting: 40 mg/kg i.p. 4 hr before Radiation 8 Gy.
Setting [6] is: Radiation 8 Gy 4 hr → 20 mg/kg as printed (second such line of Table 1).

Molecules are shown by their SMILES.

Regarding `CC1(C)CCC2=C(O1)c1ccccc1C(=O)C2=O` [β-lapachone, 3,4-dihydro-2,2-dimethyl-2H-naphtho[1,2-b]pyran-5,6-dione], the “Median survival time” value in data set [1] (setting [3]) came to 14 days; in data set [1] (setting [4]), 13.5 days; in data set [1] (40 mg/kg i.p. 4 hr after Radiation 8 Gy) it was 16.4 days; in data set [1] (setting [5]), 25 days. Also, the “No. of animals surviving at 20 days post-irradiation” value in data set [1] (setting [3]) amounted to 1; in data set [1] (setting [4]), 0; in data set [1] (setting [5]), 3; in data set [1] (setting [6]), 0. The “Death rate (%)” value in data set [1] (setting [3]) stood at 75%; in data set [1] (setting [4]), 100%; in data set [1] (setting [5]), 25%; in data set [1] (setting [6]), 100%. For the same compound, the “Temporal survival pattern (FIG. 5)” value in data set [1] (20, 40 mg/kg i.p., 4 hours before or after 8 Gy, vs control decline at 10-14 days) is “delayed this early decline in survival”. The Maximum tolerated dose in data set [2] is listed as 200 mg/kg.
